Measurements taken from paper PMC4643811, “Structural basis of Lewis^b antigen binding by the Helicobacter pylori adhesin BabA” (Science Advances, 2015).
Where two headings read alike, the source gives them in different places.

How the values were obtained:
[1] = biological target: T1, BabA (extracellular domain, H. pylori J99) (Helicobacter pylori, UniProt Q9ZKV2); experiment: isothermal titration calorimetry; assay type: binding
T1 construct: N-terminal extracellular domain, amino acids 10-527 of mature BabA; three C-terminal tags (6xLys-c-Myc-6xHis) kept; periplasmic expression in E. coli XL10 Gold; beta-barrel membrane domain absent
T1 sequence (Q9ZKV2 entry or part of it): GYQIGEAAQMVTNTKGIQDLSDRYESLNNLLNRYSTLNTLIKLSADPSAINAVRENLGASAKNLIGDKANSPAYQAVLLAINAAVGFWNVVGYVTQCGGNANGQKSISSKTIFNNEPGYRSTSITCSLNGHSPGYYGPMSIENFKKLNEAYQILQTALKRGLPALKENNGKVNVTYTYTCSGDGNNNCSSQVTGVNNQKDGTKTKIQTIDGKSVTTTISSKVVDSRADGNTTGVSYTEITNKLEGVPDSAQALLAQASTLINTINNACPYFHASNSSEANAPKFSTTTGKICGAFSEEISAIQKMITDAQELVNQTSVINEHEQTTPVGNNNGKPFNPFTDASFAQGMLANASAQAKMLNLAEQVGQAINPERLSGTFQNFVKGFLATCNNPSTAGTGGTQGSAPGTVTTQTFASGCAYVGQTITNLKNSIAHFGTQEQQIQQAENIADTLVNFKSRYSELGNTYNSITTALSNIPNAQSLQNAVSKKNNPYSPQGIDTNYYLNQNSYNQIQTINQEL

[2] = biological target: BabA (extracellular domain, H. pylori J99) (Helicobacter pylori, UniProt Q9ZKV2, N226A); settings: pH 7.4, 25°C; protein 0.25 mM, glycan 10 mM
BabA (extracellular domain, H. pylori J99) (Helicobacter pylori, UniProt Q9ZKV2, N226A), sequence (Q9ZKV2 30-547 N226A): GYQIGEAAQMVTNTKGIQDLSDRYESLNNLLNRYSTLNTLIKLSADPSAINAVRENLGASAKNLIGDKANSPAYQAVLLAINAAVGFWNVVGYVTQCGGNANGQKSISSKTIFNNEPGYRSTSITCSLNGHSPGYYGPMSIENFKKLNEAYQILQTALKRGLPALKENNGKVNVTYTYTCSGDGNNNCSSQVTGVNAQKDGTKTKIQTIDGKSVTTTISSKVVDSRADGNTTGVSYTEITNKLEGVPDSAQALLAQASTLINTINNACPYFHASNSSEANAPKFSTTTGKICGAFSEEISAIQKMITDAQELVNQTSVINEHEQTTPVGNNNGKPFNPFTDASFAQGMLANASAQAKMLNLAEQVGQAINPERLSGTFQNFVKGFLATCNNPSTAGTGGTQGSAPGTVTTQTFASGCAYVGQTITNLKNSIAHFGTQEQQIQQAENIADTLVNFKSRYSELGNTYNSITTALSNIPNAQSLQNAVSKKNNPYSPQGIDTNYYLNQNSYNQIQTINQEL

CC(=O)N[C@H]1[C@H](O[C@H]2[C@@H](O)[C@@H](CO)O[C@@H](O[C@H]3[C@H](O)[C@@H](O)C(O)O[C@@H]3CO)[C@@H]2O)O[C@H](CO)[C@@H](O[C@@H]2O[C@@H](C)[C@@H](O)[C@@H](O)[C@@H]2O)[C@@H]1O[C@@H]1O[C@H](CO)[C@H](O)[C@H](O)[C@H]1O[C@@H]1O[C@@H](C)[C@@H](O)[C@@H](O)[C@@H]1O (stereo partly drawn) [Le^b]
Kd ([1]; pH 7.4, 20 mM tris-Cl, 300 mM NaCl, 25°C, single site): ~252 µM
Kd [2]: ~582 µM

H-1 antigen
Kd ([1]; pH 7.4, 25°C, protein 0.25 mM, glycan 10 mM, read-out: KD): ~617 µM
